Measurements reported in US12559474B2, “Triazine derivatives having virus replication inhibitory activity and pharmaceutical composition comprising the same” (priority 2021, dated 2026).
Read-outs that look alike come from different tables or passages of the source.

Key:
SARS-CoV-2 = test: microbe, parasite or virus in culture; assay type: cell-based; conditions: Severe acute respiratory syndrome coronavirus 2, VeroE6/TMPRSS2, 72 h, 50% SARS-CoV-2 infected cell death inhibitory concentration, VeroE6/TMPRSS2 cells, 3 days culture
SARS-CoV-2 3CL protease = SARS-CoV-2 3CL protease (Severe acute respiratory syndrome coronavirus 2, UniProt P0DTD1); test: biochemical; conditions: 50% SARS-CoV-2 3CL protease inhibitory concentration, read-out: IC50

| Structure (SMILES) | EC50 (SARS-CoV-2; class symbols) [nM] | IC50 (SARS-CoV-2 3CL protease; given as class symbols) [nM] | EC50 (SARS-CoV-2; CellTiter-Glo 2.0) [nM] | IC50 (SARS-CoV-2 3CL protease; RapidFire MS) [nM] |
| --- | --- | --- | --- | --- |
| CCn1cc2cc(Nc3nc(=O)n(-c4cncc(Cl)c4)c(=O)n3Cc3cc(C#N)c(F)cn3)c(Cl)cc2n1 [II-0127] | 1000 to 10000 | < 100 |  |  |
| CNc1cncc(-n2c(=O)nc(Nc3cc4cn(C)nc4cc3Cl)n(Cc3cc(Cl)c(F)cc3F)c2=O)c1 [II-0599] | < 1000 | < 100 |  |  |
| O=c1[nH]cccc1Cn1c(=O)nc(Nc2cc3cn(CCOC(F)(F)F)nc3cc2Cl)n(Cc2cc(F)c(F)c(F)c2)c1=O [Compound I-0381] | 1000 to 10000 | < 100 |  |  |
| CNc1nc2cc(Cl)c(Nc3nc(=O)n(-c4cncc(C)c4)c(=O)n3Cc3ccc(F)c(C#N)c3)cc2n1C [II-0414] | 1000 to 10000 | < 100 |  |  |
| Cc1cncc(-n2c(=O)nc(Nc3cc4cn(C)nc4cc3Cl)n(Cc3cc(F)cc(Cl)c3)c2=O)c1 [II-0177] | < 1000 | < 100 |  |  |
| Cc1cncc(-n2c(=O)nc(Nc3cc4cn(C)nc4cc3Cl)n(Cc3ccc(F)c(F)c3)c2=O)c1 [II-0028] | < 1000 | < 100 |  |  |
| Cc1cncc(-n2c(=O)nc(Nc3cc4cn(C)nc4cc3F)n(Cc3ccc(F)c(C#N)c3)c2=O)c1 [Compound I-0384] | < 1000 | < 100 |  |  |
| Cn1nc2cc(Cl)c(Nc3nc(=O)n(-c4cncc5ccccc45)c(=O)n3Cc3cc(F)c(F)c(F)c3)cc2c1F [II-0462] | < 1000 | < 100 |  |  |
| Cc1cncc(-n2c(=O)nc(Nc3cc4sc(C)nc4cc3Cl)n(Cc3ccc(F)c(C#N)c3)c2=O)c1 [II-0193] | 1000 to 10000 | < 100 |  |  |
| Cc1cncc(-n2c(=O)nc(Nc3cc4c(cc3C)OCC4)n(Cc3ccc(F)c(C#N)c3)c2=O)c1 [II-0172] | < 1000 | < 100 |  |  |
| Cc1cncc(-n2c(=O)nc(Nc3cc4cn(C)nc4cc3Cl)n(Cc3cc(C#N)ccc3CF)c2=O)c1 [II-0334] |  |  | 620 | 2.8 |
| Cc1cncc(-n2c(=O)nc(N3CC4CCC3CO4)n(Cc3cc(F)c(F)c(F)c3)c2=O)c1 (stereo not drawn) [II-0375] |  |  | 21600 | 3800 |
| Cn1cc2cc(Nc3nc(=O)n(-c4cncc(C#N)c4)c(=O)n3Cc3cc(Cl)c(F)cc3F)c(Cl)cc2n1 [II-0485] | < 1000 | < 100 |  |  |
| Cn1cc2cc(Nc3nc(=O)n(-c4cncc5ccccc45)c(=O)n3Cc3ccc(F)c(C#N)c3)ccc2n1 [Compound I-0353] |  |  | 306 | 5.4 |
| Cc1cncc(-n2c(=O)nc(Nc3cc4sc(C)nc4cc3F)n(Cc3ccc(F)c(C#N)c3)c2=O)c1 [II-0416] | 1000 to 10000 | < 100 |  |  |
| Cn1cc2cc(Nc3nc(=O)n(Cc4cc5ccsc5[nH]c4=O)c(=O)n3Cc3cc(F)c(F)c(F)c3)c(Cl)cc2n1 [Compound I-0110] |  |  | 321 | 4.2 |
| Cc1nc2ccc(Nc3nc(=O)n(-c4cncc5ccccc45)c(=O)n3Cc3ccc(F)c(C#N)c3)cc2s1 [II-0198] | < 1000 | < 100 |  |  |
| Cn1cc2cc(Nc3nc(=O)n(Cc4cc(Cl)c[nH]c4=O)c(=O)n3Cc3ccc(F)c(C#N)c3)c(Cl)cc2n1 [Compound I-0359] | 1000 to 10000 | < 100 |  |  |
| O=c1[nH]cccc1Cn1c(=O)nc(Nc2cc3cn(CC4(O)CCC4)nc3cc2Cl)n(Cc2cc(F)c(F)c(F)c2)c1=O [Compound I-0423] | 1000 to 10000 | < 100 |  |  |
| COc1ccc(Nc2nc(=O)n(Cc3ccc[nH]c3=O)c(=O)n2Cc2ccc(F)c(C#N)c2)cc1 [Compound I-0253] | 1000 to 10000 | < 100 |  |  |
| CCCCn1cc2cc(Nc3nc(=O)n(Cc4ccc[nH]c4=O)c(=O)n3Cc3cc(F)c(F)c(F)c3)c(Cl)cc2n1 [Compound I-0286] | 1000 to 10000 | < 100 |  |  |
| COc1cc(Cn2c(Nc3cc4cn(C)nc4cc3Cl)nc(=O)n(-c3cncc(C)c3)c2=O)ccc1F [II-0593] | 1000 to 10000 | < 100 |  |  |
| Cc1cncc(-n2c(=O)nc(Nc3cc4sc(NC(C)C)nc4cc3Cl)n(Cc3ccc(F)c(C#N)c3)c2=O)c1 [II-0035] | < 1000 | < 100 |  |  |
| COc1ccc(Nc2nc(=O)n(Cc3ccc[nH]c3=O)c(=O)n2Cc2cc(F)c(F)c(F)c2F)cc1 [Compound I-0256] | 1000 to 10000 | < 100 |  |  |

| Structure (SMILES) | EC50 (SARS-CoV-2; class symbols) [nM] | IC50 (SARS-CoV-2 3CL protease; given as class symbols) [nM] | EC50 (SARS-CoV-2; CellTiter-Glo 2.0) [nM] | IC50 (SARS-CoV-2 3CL protease; RapidFire MS) [nM] |
| --- | --- | --- | --- | --- |
| Cc1nc2cc(C)c(Nc3nc(=O)n(Cc4ccc[nH]c4=O)c(=O)n3Cc3cc(F)c(F)c(F)c3)cc2s1 [Compound I-0116] | 1000 to 10000 | < 100 |  |  |
| Cn1cc2cc(Nc3nc(=O)n(-c4cncc5ccccc45)c(=O)n3Cc3cc(F)c(F)cc3F)c(Cl)cc2n1 [II-0308] | < 1000 | < 100 |  |  |
| CC(C)n1cc2cc(Nc3nc(=O)n(Cc4cccnc4O)c(=O)n3Cc3cc(F)c(F)c(F)c3)c(Cl)cc2n1 [Compound I-0366] | 1000 to 10000 | < 100 |  |  |
| Cn1cnc(Cn2c(=O)nc(Nc3cc4cn(C)nc4cc3Cl)n(Cc3cc(F)c(F)c(F)c3)c2=O)n1 [Compound I-0421] | < 1000 | < 100 | 450 | 10 |
| Cc1cncc(-n2c(=O)nc(Nc3cc4cn(C)nc4cc3Cl)n(Cc3cc(F)c(F)cc3OCC3CCC3)c2=O)c1 [II-0551] | < 1000 | < 100 |  |  |
| O=C(O)c1ccc(Nc2nc(=O)n(Cc3ccc[nH]c3=O)c(=O)n2Cc2cc(F)c(F)c(F)c2)cc1 [Compound I-0035] | < 1000 | 1000 to 10000 |  | 3500 |
| Cn1cc2cc(Nc3nc(=O)n(-c4cncc(Cl)c4)c(=O)n3Cc3ccc(F)c(C#N)c3)ccc2n1 [II-0608] |  |  | 487 | 19 |
| Cn1cnc(Cn2cc3cc(Nc4nc(=O)n(Cc5ncn(C)n5)c(=O)n4Cc4cc(Cl)c(F)cc4F)c(Cl)cc3n2)n1 [II-0003] |  |  | 17800 | 6 |
| CNc1nc2cc(Cl)c(Nc3nc(=O)n(-c4cncc(Cl)c4)c(=O)n3Cc3ccc(F)c(C#N)c3)cc2o1 [II-0516] | 1000 to 10000 | < 100 |  |  |
| Cn1cnc(Cn2c(=O)nc(Nc3cc4cn(CCO)nc4cc3Cl)n(Cc3cc(F)c(F)c(F)c3)c2=O)n1 [Compound I-0432] | 1000 to 10000 | < 100 |  |  |
| Cc1nc2cc(Cl)c(Nc3nc(=O)n(Cc4ncn(C)n4)c(=O)n3Cc3cc(F)c(F)cc3F)cc2s1 [II-0287] | 1000 to 10000 | < 100 |  |  |
| Cn1cc2cc(Nc3nc(=O)n(-c4cncc(Cl)c4)c(=O)n3Cc3cc(C#N)c(F)cc3Cl)ccc2n1 [II-0282] |  |  | 260 | 8.8 |
| O=c1[nH]cccc1Cn1c(=O)nc(Nc2cc3c(cc2Cl)nc2n3CCOC2)n(Cc2cc(F)c(F)c(F)c2)c1=O [Compound I-0457] |  |  | 5300 | 7.2 |
| Cc1cncc(-n2c(=O)nc(Nc3cc4cn(C)nc4cc3Cl)n(Cc3cc(Cl)c(F)cc3F)c2=O)c1 [II-0377] |  |  | 49 | 3 |
| Cn1cc2cc(Nc3nc(=O)n(-c4cncc5ccccc45)c(=O)n3Cc3ccc(F)c(C#N)c3)c(F)cc2n1 [Compound I-0429] | < 1000 | < 100 |  |  |
| Cc1nc2cc(Cl)c(Nc3nc(=O)n(-c4cccc5ccccc45)c(=O)n3Cc3cc(F)c(F)c(F)c3)cc2n1C [Compound I-0456] | 1000 to 10000 | < 100 |  |  |
| Cn1cnc(Cn2c(=O)nc(Nc3cc4cn(CC(=O)N5CCOCC5)nc4cc3Cl)n(Cc3cc(Cl)c(F)cc3F)c2=O)n1 [II-0132] |  |  | 49800 | 2.5 |
| Cn1cnc(Cn2c(=O)nc(Nc3cc4c(C(F)(F)F)n(C)nc4cc3Cl)n(Cc3cc(F)c(F)cc3F)c2=O)n1 [II-0468] | 1000 to 10000 | < 100 |  |  |
| O=c1nc(Nc2cc3cn(CCN4CCOCC4)nc3cc2Cl)n(Cc2cc(F)c(F)c(F)c2)c(=O)n1-c1cncc2ccccc12 [Compound I-0401] | 1000 to 10000 | < 100 |  |  |
| CNc1nc2cc(Cl)c(Nc3nc(=O)n(Cc4ncn(C)n4)c(=O)n3Cc3cc(F)c(F)cc3F)cc2s1 [II-0048] | < 1000 | < 100 |  |  |
| CNc1nc2cc(F)c(Nc3nc(=O)n(Cc4ncn(C)n4)c(=O)n3Cc3cc(F)c(F)cc3F)cc2s1 [II-0400] | 1000 to 10000 | < 100 |  |  |
| Cn1cnc(Cn2c(=O)nc(Nc3cc4cn(C)nc4cc3Cl)n(Cc3cc(F)c(F)c(Cl)c3)c2=O)n1 [II-0045] |  |  | 218 | 4.7 |
| Cc1cncc(-n2c(=O)nc(Nc3cc4cn(CC(F)F)nc4cc3F)n(Cc3ccc(F)c(C#N)c3)c2=O)c1 [II-0439] | < 1000 | < 100 |  |  |
| N#Cc1cc(Cn2c(Nc3ccc4c(c3)CCO4)nc(=O)n(-c3cncc(C(F)F)c3)c2=O)ccc1F [Compound I-0349] | 1000 to 10000 | < 100 |  |  |
